Experimental data taken from ChEMBL document CHEMBL1123017, “Synthesis and antifertility activity of zoapatanol analogues” (1985).

Each molecule was assayed on Cavia porcellus (assay: Compound was evaluated for contragestational activity in guinea pig after intraperitoneal administration; Range is 50-100).
Assay type: functional
With `CC(C)=CCC(O)C(C)CCC[C@]1(C)OC[C@]2(CCO)CC[C@H]1O2` (stereo partly specified) the Contragestational activity was 50 mg/kg.
For `CC(C)=CCC(=O)C(C)CCC[C@]1(C)OC/C(=C/CO)CC[C@H]1O` (stereo partly specified), the Contragestational activity was 50 mg/kg.
For `CC(=O)OC/C=C1\CC[C@@H](OC(C)=O)[C@](C)(CCCC(C)C(=O)CC=C(C)C)OC1` (stereo partly specified), the Contragestational activity was 50 mg/kg.
`CC(=O)OC/C=C1\CC[C@@H](OC(C)=O)[C@](C)(CCCC(C)C(O)CC=C(C)C)OC1` (stereo partly specified) was tested, and the Contragestational activity was 50 mg/kg.
`C/C(=C\C(=O)C(C)CCC[C@]1(C)OC[C@]2(CC(=O)O)CC[C@H]1O2)C(C)C` (stereo partly specified) was tested, and the Contragestational activity was 50 mg/kg.
Work on `CC(=O)OC/C=C1\CC[C@@H](O)[C@](C)(CCCC(C)C(=O)CC=C(C)C)OC1` (stereo partly specified) yielded a Contragestational activity of 50 mg/kg.

The molecules below were run on Cavia porcellus (assay: Contragestational activity in guinea pig after intraperitoneal administration; Not Significant.).
Assay type: functional
`C=C[C@@]12CC[C@@H](O1)[C@](C)(CCCC(C)C(=O)CC=C(C)C)OC2` (stereo partly specified) gave a Contragestational activity greater than 100 mg/kg.
Work on `CC(=O)OC/C=C1\CCC(=O)[C@](C)(CCCC(C)C(=O)CC=C(C)C)OC1` (stereo partly specified) yielded a Contragestational activity greater than 100 mg/kg.
Work on `COC(=O)/C=C1\CC[C@@H](OC(C)=O)[C@](C)(CCCC(C)C(O)CC=C(C)C)OC1` (stereo partly specified) yielded a Contragestational activity greater than 100 mg/kg.
In the case of `CC(CCC[C@]1(C)OC[C@]2(CC(=O)O)CC[C@H]1O2)C(=O)CC(C)C(C)C` (stereo partly specified), the Contragestational activity is reported as greater than 100 mg/kg.
For `CC(CCC[C@]1(C)OC[C@]2(CC(=O)O)CC[C@H]1O2)C(=O)O` (stereo partly specified), the Contragestational activity was greater than 100 mg/kg.
Molecule `C/C(=C\C(C)(O)C(C)CCC[C@]1(C)OC/C(=C/CO)CC[C@H]1O)C(C)C` (stereo partly specified) has a Contragestational activity greater than 100 mg/kg.
`C#CC(O)(CC=C(C)C)C(C)CCC[C@]1(C)OC/C(=C/CO)CC[C@H]1O` (stereo partly specified) showed a Contragestational activity greater than 100 mg/kg.
In the case of `CC(CCC[C@]1(C)OC[C@]2(CC(=O)O)CC[C@H]1O2)C(=O)/C=C/C(C)(C)O` (stereo partly specified), the Contragestational activity is reported as greater than 100 mg/kg.
Molecule `CC(=O)O[C@@H]1CCC(=O)CO[C@@]1(C)CCCC(C)C(=O)O` (stereo partly specified) has a Contragestational activity greater than 100 mg/kg.
For `CC(C)CCC(=O)C(C)CCC[C@]1(C)OCC(CCO)CC[C@H]1O` (stereo partly specified), the Contragestational activity was greater than 100 mg/kg.
`CC(CCC[C@]1(C)OC/C(=C/CO)CC[C@H]1O)C(=O)/C=C/C(C)(C)OO` (stereo partly specified) was tested, and the Contragestational activity was greater than 100 mg/kg.
`COC(=O)C[C@@]12CC[C@@H](O1)[C@](C)(CCCC(C)CO)OC2` (stereo partly specified) was tested, and the Contragestational activity was greater than 100 mg/kg.
With `C/C(=C\C(O)C(C)CCC[C@]1(C)OC/C(=C/CO)CC[C@H]1O)C(C)C` (stereo partly specified) the Contragestational activity was greater than 100 mg/kg.
Work on `C/C(=C\C(=O)C(C)CCC[C@]1(C)OC/C(=C/CO)CC[C@H]1O)C(C)C` (stereo partly specified) yielded a Contragestational activity greater than 100 mg/kg.
`C/C(=C\C(=O)C(C)CCC[C@]1(C)OC[C@]2(C(=O)O)CC[C@H]1O2)C(C)C` (stereo partly specified) showed a Contragestational activity greater than 100 mg/kg.
With `CC(CCC[C@]1(C)OC/C(=C/CO)CC[C@H]1O)C(=O)/C=C/C(C)(C)O` (stereo partly specified) the Contragestational activity was greater than 100 mg/kg.

Each molecule was assayed on Cavia porcellus (assay: Compound was evaluated for contragestational activity in guinea pig after intraperitoneal administration).
Assay type: functional
Work on `CC(C)=CCC(O)C(C)CCC[C@]1(C)OC[C@]2(CC(=O)O)CC[C@H]1O2` (stereo partly specified) yielded a Contragestational activity of less than 10 mg/kg.
Molecule `CC(C)CCC(O)C(C)CCC[C@]1(C)OC[C@]2(CC=O)CC[C@H]1O2` (stereo partly specified) has a Contragestational activity of less than 10 mg/kg.
With `CC(C)=CCC(O)C(C)CCC[C@]1(C)OC[C@]2(CC=O)CC[C@H]1O2` (stereo partly specified) the Contragestational activity was less than 10 mg/kg.
For `CC(C)CCC(O)C(C)CCC[C@]1(C)OC[C@]2(CC(=O)O)CC[C@H]1O2` (stereo partly specified), the Contragestational activity was less than 10 mg/kg.
With `CC(C)=CCC(=O)C(C)CCC[C@]1(C)OC[C@]2(CCO)CC[C@H]1O2` (stereo partly specified) the Contragestational activity was less than 10 mg/kg.
In the case of `CC(C)=CCC(=O)C(C)CCC[C@]1(C)OC[C@]2(CC(=O)O)CC[C@H]1O2` (stereo partly specified), the Contragestational activity is reported as less than 10 mg/kg.
`CC(C)=CCC(=O)C(C)CCC[C@]1(C)OC[C@]2(CC=O)CC[C@H]1O2` (stereo partly specified) gave a Contragestational activity of less than 10 mg/kg.
`COC(=O)C[C@@]12CC[C@@H](O1)[C@](C)(CCCC(C)C(O)CC=C(C)C)OC2` (stereo partly specified) showed a Contragestational activity of less than 10 mg/kg.
In the case of `CC(C)=CCC(C)(O)C(C)CCC[C@]1(C)OC[C@]2(CC(=O)O)CC[C@H]1O2` (stereo partly specified), the Contragestational activity is reported as less than 10 mg/kg.

Each molecule was assayed on Cavia porcellus (assay: Compound was evaluated for contragestational activity in guinea pig after intraperitoneal administration; Range is 10-25).
Assay type: functional
With `CC(C)CCC(O)C(C)CCC[C@]1(C)OC[C@]2(CCO)CC[C@H]1O2` (stereo partly specified) the Contragestational activity was 10 mg/kg.
In the case of `CC(C)=CCC(O)C(C)CCC[C@]1(C)OC/C(=C/CO)CC[C@H]1O` (stereo partly specified), the Contragestational activity is reported as 10 mg/kg.
For `C#CC(O)(CC=C(C)C)C(C)CCC[C@]1(C)OC[C@]2(CC(=O)O)CC[C@H]1O2` (stereo partly specified), the Contragestational activity was 10 mg/kg.
`CC(=O)O[C@@H]1CC/C(=C\C=O)CO[C@@]1(C)CCCC(C)C(=O)CC=C(C)C` (stereo partly specified) was tested, and the Contragestational activity was 10 mg/kg.
With `CC(C)=CCC(C)(O)C(C)CCC[C@]1(C)OC/C(=C/CO)CC[C@H]1O` (stereo partly specified) the Contragestational activity was 10 mg/kg.
`CC(C)=CCC(O)C(C)CCC[C@]1(C)OC[C@]2(C(=O)O)CC[C@H]1O2` (stereo partly specified) was tested, and the Contragestational activity was 10 mg/kg.

What follows are molecules tested on Cavia porcellus (assay: Compound was evaluated for contragestational activity in guinea pig after intraperitoneal administration; Range is 25-50).
Assay type: functional
`CC(C)=CCC(=O)C(C)CCC[C@]1(C)OC[C@]2(C(=O)O)CC[C@H]1O2` (stereo partly specified) was tested, and the Contragestational activity was 25 mg/kg.
Molecule `CC(C)CCC(=O)C(C)CCC[C@]1(C)OC[C@]2(CC(=O)O)CC[C@H]1O2` (stereo partly specified) has a Contragestational activity of 25 mg/kg.
Work on `CC(=O)OC/C=C1\CC[C@@H](OC(C)=O)[C@](C)(CCCC(C)C(CC=C(C)C)OC(C)=O)OC1` (stereo partly specified) yielded a Contragestational activity of 50 mg/kg.
`CC(=O)O[C@@H]1CC/C(=C\CO)CO[C@@]1(C)CCCC(C)C(=O)CC=C(C)C` (stereo partly specified) gave a Contragestational activity of 25 mg/kg.
